Assay results: article PMC3093256, “Synthesis of 1-Substituted Carbazolyl-1,2,3,4-tetrahydro- and Carbazolyl-3,4-dihydro-β-carboline Analogs as Potential Antitumor Agents” (Marine Drugs, 2011)
Values after ≈ are worked out from the molar mass of the structure shown.

Key:
[1] = target: T1, human DNA topoisomerase I (Homo sapiens, UniProt P11387); test: Relaxation assay of topoisomerase I (supercoiled pBR322); format: biochemical; settings: five concentrations 5, 10, 25, 50 and 100 μg/mL; read-out: Inhibition of DNA topoisomerase I IC50 (converted)
T1 construct: purchased TopoGen
T1 sequence (P11387 1-765): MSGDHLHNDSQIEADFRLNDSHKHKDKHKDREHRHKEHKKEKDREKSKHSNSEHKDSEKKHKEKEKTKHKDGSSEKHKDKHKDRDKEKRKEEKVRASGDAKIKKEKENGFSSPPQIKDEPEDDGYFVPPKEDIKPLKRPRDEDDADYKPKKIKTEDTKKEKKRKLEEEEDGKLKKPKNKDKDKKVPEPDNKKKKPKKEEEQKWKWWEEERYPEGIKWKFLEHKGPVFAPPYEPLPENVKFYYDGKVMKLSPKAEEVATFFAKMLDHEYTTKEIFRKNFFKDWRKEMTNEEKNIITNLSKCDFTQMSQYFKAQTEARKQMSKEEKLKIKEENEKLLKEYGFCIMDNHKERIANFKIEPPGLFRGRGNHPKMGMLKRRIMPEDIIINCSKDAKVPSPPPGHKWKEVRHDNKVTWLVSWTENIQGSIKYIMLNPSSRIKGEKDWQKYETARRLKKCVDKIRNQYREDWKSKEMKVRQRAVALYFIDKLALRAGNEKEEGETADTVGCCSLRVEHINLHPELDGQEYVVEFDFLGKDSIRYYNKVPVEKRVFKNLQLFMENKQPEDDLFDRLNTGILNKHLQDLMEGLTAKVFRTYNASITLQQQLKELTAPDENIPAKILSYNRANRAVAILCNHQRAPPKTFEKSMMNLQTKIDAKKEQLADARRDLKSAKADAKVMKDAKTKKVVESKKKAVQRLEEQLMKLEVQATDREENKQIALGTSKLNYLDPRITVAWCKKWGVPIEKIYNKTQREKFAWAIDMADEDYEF
Protocol: (§1) Topoisomerases I and II (topo I and II) assays were measured by assessing relaxation of supercoiled pBR322 plasmid DNA according to [24]. […] In summary, topo I (TopoGen) was mixed with the test sample and 10° volume of assay buffer (100 mM Tris-HCl, 10 mM EDTA, 1.5 M NACl, 1.0% BSA, […], and 50% glycerol), and then supercoiled DNA (pBR322) was added. In topo II assay, the mixture contained test sample and buffer including 50 mM Tris-HCl, 120 mM KCl, 10 mM MgCl2, 0.5 mM ATP, 0.5 mM dithiothreitol, 2 μg BSA, pBR322 plasmid DNA (0.25 μg), and 3U of topo II (TopoGen) in final volume of 20 μL. After incubation of topo I or topo II mixture for 30 min at 37 °C, 2 λ 10% SDS and 2.5 λ proteinase K were added for 1 h. The reaction mixtures were electrophoresed on a 2% agarose gel (50 V, 20 min; 100 V, 30 min; 110 V, 30 min) and stained with ethidium bromide. Finally, by a densitometer of ImageMaster® (Fujifilm thermal imaging system, FTI-500), the gels were directly scanned and the area representing supercoiled DNA was calculated.

Hepa (human hepatoma) = test: Cytotoxicity assay, Hepa cells; format: cell-based; settings: 72 h, 3 days incubation, by interpolation
Protocol: (§2) The cytotoxic activities of compounds against KB (human mouth epidermoid carcinoma), DLD (human colon adenocarcinoma), NCI-H661 (human lung large cell carcinoma), Hepa (human hepatoma), and HepG2/A2 (human hepatoblastoma) cells were assayed by the […] assay as previously described. The cells for assay were cultured in RPMI-1640 medium supplemented with […] in an incubator at 37 °C. The cytotoxicity assay depends on the binding of methylene blue to fixed monolayers of cells at pH 8.5, washing the monolayer, and releasing the dye by lowering the pH value. Samples and control standard drugs were prepared at a concentration of 1, 10, 40, and 100 μg/mL. After seeding 2880 cells/well in a 96-well microplate for 3 h, 20 μL of sample or standard agent was placed in each well and incubated at 37 °C for 3 days. After removing the medium from the microplates, the cells were fixed with 10% formaldehyde in 0.9% saline for 30 min, then dyed with 1% (w/v) methylene blue in 0.01 M borate-buffer (100 μL/well) for 30 min. The 96-well plate was dipped into a 0.01 M borate-buffer solution four times in order to remove the dye. Then, 100 μL/well of EtOH-0.1 M HCl (1:1) was added as a dye eluting solvent, and the absorbance was measured on a microtiter plate reader (Dynatech, MR 7000) at a wavelength of 650 nm. […] Doxorubicin was used as a standard compound.

[2] = system: HepG2/A2 (human hepatoma); test: Cytotoxicity assay, HepG2/A2 cells; format: cell-based; settings: Homo sapiens, 72 h; HepG2/A2 cells, 3 days incubation, by interpolation
Protocol: as §2

[3] = target: T2, human DNA topoisomerase II (Homo sapiens, UniProt P11388); test: Relaxation assay of topoisomerase II (supercoiled pBR322); format: biochemical; settings: for IC50: five concentrations 5, 10, 25, 50 and 100 μg/mL, read-out: Inhibition of DNA topoisomerase II IC50 (converted)
T2 construct: purchased TopoGen
Protocol: as §1

[4] = system: KB (human mouth epidermoid carcinoma); test: Cytotoxicity assay, KB cells; format: cell-based; settings: 72 h, 3 days incubation, by interpolation
Protocol: as §2

[5] = system: DLD (human colon adenocarcinoma); test: Cytotoxicity assay, DLD cells; format: cell-based; settings: Homo sapiens, 72 h, 3 days incubation, by interpolation
Protocol: as §2

[6] = system: NCI-H661 (human lung large cell carcinoma); test: Cytotoxicity assay, NCI-H661 cells; format: cell-based; settings: 72 h, 3 days incubation, by interpolation
Protocol: as §2

human tumor cell lines = test: Cytotoxicity assay, tumor cell panel (cell line not specified); format: cell-based; settings: positive control
Protocol: The cytotoxic activities of compounds against KB (human mouth epidermoid carcinoma), DLD (human colon adenocarcinoma), NCI-H661 (human lung large cell carcinoma), Hepa (human hepatoma), and HepG2/A2 (human hepatoblastoma) cells were assayed by the MTT{3-(4,5-dimethylthiazole-2-yl)-2,5-diphenyltetrazolium bromide} colorimetric assay as previously described. The cells for assay were cultured in RPMI-1640 medium supplemented with […] in an incubator at 37 °C. The cytotoxicity assay depends on the binding of methylene blue to fixed monolayers of cells at pH 8.5, washing the monolayer, and releasing the dye by lowering the pH value. Samples and control standard drugs were prepared at a concentration of 1, 10, 40, and 100 μg/mL. After seeding 2880 cells/well in a 96-well microplate for 3 h, 20 μL of sample or standard agent was placed in each well and incubated at 37 °C for 3 days. After removing the medium from the microplates, the cells were fixed with 10% formaldehyde in 0.9% saline for 30 min, then dyed with 1% (w/v) methylene blue in 0.01 M borate-buffer (100 μL/well) for 30 min. The 96-well plate was dipped into a 0.01 M borate-buffer solution four times in order to remove the dye. Then, 100 μL/well of EtOH-0.1 M HCl (1:1) was added as a dye eluting solvent, and the absorbance was measured on a microtiter plate reader (Dynatech, MR 7000) at a wavelength of 650 nm. […]

T2 sequence (P11388 whole entry): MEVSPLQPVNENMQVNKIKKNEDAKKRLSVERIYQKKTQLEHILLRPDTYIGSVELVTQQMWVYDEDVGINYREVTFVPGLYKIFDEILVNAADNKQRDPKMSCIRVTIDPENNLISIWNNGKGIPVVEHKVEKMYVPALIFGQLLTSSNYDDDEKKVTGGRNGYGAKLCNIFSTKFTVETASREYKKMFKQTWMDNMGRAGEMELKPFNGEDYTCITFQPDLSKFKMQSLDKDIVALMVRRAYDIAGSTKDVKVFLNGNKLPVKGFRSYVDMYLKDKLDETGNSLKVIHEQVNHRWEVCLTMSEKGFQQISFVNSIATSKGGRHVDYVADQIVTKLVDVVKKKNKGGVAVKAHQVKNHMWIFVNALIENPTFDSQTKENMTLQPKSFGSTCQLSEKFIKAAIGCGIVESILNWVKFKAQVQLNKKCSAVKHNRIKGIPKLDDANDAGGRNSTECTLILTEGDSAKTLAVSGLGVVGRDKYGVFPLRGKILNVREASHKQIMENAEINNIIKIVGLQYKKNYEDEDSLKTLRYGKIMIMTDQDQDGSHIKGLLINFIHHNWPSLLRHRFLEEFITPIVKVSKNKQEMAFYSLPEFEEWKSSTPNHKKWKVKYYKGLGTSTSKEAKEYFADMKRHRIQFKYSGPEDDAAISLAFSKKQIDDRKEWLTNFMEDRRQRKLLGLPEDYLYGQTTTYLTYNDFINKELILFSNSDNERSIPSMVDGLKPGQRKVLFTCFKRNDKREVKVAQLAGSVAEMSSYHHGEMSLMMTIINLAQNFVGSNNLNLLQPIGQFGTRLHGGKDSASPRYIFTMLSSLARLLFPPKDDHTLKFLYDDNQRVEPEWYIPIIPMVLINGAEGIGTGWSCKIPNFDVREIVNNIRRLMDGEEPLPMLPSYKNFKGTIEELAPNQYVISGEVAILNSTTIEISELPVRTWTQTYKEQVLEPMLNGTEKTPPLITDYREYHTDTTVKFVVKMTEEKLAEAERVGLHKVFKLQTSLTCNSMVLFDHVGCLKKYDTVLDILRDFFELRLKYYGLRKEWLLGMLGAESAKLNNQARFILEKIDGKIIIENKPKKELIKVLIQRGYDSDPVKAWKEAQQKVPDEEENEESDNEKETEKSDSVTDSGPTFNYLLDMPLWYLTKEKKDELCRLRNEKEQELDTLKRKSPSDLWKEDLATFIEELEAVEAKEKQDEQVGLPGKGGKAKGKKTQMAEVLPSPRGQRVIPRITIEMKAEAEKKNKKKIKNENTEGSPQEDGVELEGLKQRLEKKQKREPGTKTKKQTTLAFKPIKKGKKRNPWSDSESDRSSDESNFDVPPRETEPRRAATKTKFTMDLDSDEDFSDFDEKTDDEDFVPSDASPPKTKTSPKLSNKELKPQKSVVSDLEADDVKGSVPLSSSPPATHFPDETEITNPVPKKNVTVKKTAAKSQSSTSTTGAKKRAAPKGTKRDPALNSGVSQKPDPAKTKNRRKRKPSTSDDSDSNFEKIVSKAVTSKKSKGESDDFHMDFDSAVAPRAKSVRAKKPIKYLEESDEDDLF

| melting point | IC50 [1] | IC50 [3] | inhibition of DNA topoisomerase II (in words) ([3]; compared with etoposide) | Structure (SMILES) | IC50 (Hepa (human hepatoma)) | IC50 [2] | IC50 [4] | IC50 [5] | IC50 [6] | IC50 (human tumor cell lines) |
| --- | --- | --- | --- | --- | --- | --- | --- | --- | --- | --- |
| 90 to 92 °C | > 179 µM | > 179 µM |  | CCCCCCCCCCCCCCCCn1c2ccccc2c2cc(C3=NCCc4c3[nH]c3ccccc43)ccc21 [Compound 16, 1-(9′-Hexadecyl-3′-carbazolyl)-3,4-dihydro-β-carboline] | > 20 µg/mL | > 60 µg/mL | > 20 µg/mL | > 20 µg/mL | > 20 µg/mL |  |
| 91 to 93 °C | > 162 µM | 9.09 µM | great activity | CCCCCCCCCCCCCCCCCCCCn1c2ccccc2c2cc(C3=NCCc4c3[nH]c3ccccc43)ccc21 [Compound 18, 1-(9′-Eicosyl-3′-carbazolyl)-3,4-dihydro-β-carboline] | > 20 µg/mL | > 60 µg/mL | > 20 µg/mL | > 20 µg/mL | > 20 µg/mL |  |
|  |  |  |  | COc1cccc2c1C(=O)c1c(O)c3c(c(O)c1C2=O)C[C@@](O)(C(=O)CO)C[C@@H]3O[C@H]1C[C@H](N)[C@H](O)[C@H](C)O1 [Doxorubicin] |  |  |  |  |  | 0.1 µg/mL (≈ 0.184 µM) |
